Key:
Assay in all cases: relative viability (nuclei count vs DMSO), 5 days (fraction); higher = more cells survive
IU1-47 + Bortezomib = compound: CC1=CC(=C(N1C2=CC=C(C=C2)Cl)C)C(=O)CN3CCCCC3 [IU1-47] + CC(C)C[C@H](NC(=O)[C@H](Cc1ccccc1)NC(=O)c1cnccn1)B(O)O [Bortezomib] (partner 0.002 µM)
Summary of the method: (§1)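 After 5 days of treatment, lung cancer cells in 1536-well plates were fixed and stained in a single step (final 0.05% Triton X-100, 1% formaldehyde, 1 ug/ml Hoechst) and their nuclei counted on 4× images. Treatment had been applied by pin tool the day after seeding as one drug alone or as a fixed anchor-drug dose with five library-drug doses (not always all listed) in √10 steps. Relative viability is the nuclei count of treated wells divided by that of vehicle wells, and values are medians of duplicate plates.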

IU1-47 + Vorinostat = compound: CC1=CC(=C(N1C2=CC=C(C=C2)Cl)C)C(=O)CN3CCCCC3 [IU1-47] + O=C(CCCCCCC(=O)Nc1ccccc1)NO [Vorinostat] (partner 1 µM)
Summary of the method: as §1

FG-4592 + Phenformin = compound: Cc1nc(C(=O)NCC(=O)O)c(O)c2ccc(Oc3ccccc3)cc12 [FG-4592] + N=C(N)NC(=N)NCCc1ccccc1 [Phenformin] (partner 250 µM)
Summary of the method: as §1

FG-4592 + AZD7762 = compound: Cc1nc(C(=O)NCC(=O)O)c(O)c2ccc(Oc3ccccc3)cc12 [FG-4592] + NC(=O)Nc1cc(-c2cccc(F)c2)sc1C(=O)N[C@H]1CCCNC1 [AZD7762] (partner 0.2 µM)
Summary of the method: as §1

Cell Line | relative viability (IU1-47 + Bortezomib; first compound 0.08 µM) | relative viability (IU1-47 + Bortezomib; first compound 0.253 µM) | relative viability (IU1-47 + Bortezomib; first compound 0.8 µM) | relative viability (IU1-47 + Bortezomib; first compound 2.53 µM) | relative viability (IU1-47 + Bortezomib; first compound 8 µM) | relative viability (IU1-47 + Vorinostat; first compound 0.08 µM) | relative viability (IU1-47 + Vorinostat; first compound 0.253 µM) | relative viability (IU1-47 + Vorinostat; first compound 0.8 µM) | relative viability (IU1-47 + Vorinostat; first compound 2.53 µM) | relative viability (IU1-47 + Vorinostat; first compound 8 µM) | relative viability (FG-4592 + Phenformin; first compound 0.08 µM) | relative viability (FG-4592 + Phenformin; first compound 0.253 µM) | relative viability (FG-4592 + Phenformin; first compound 0.8 µM) | relative viability (FG-4592 + Phenformin; first compound 2.53 µM) | relative viability (FG-4592 + Phenformin; first compound 8 µM) | relative viability (FG-4592 + AZD7762; first compound 0.08 µM) | relative viability (FG-4592 + AZD7762; first compound 0.253 µM) | relative viability (FG-4592 + AZD7762; first compound 0.8 µM) | relative viability (FG-4592 + AZD7762; first compound 2.53 µM) | relative viability (FG-4592 + AZD7762; first compound 8 µM)
RERF-LC-KJ | 1.16 | 1.18 | 1.12 | 1.14 | 1.06 | 0.743 | 0.749 | 0.749 | 0.604 | 0.605 | 0.378 | 0.324 | 0.418 | 0.538 | 0.481 | 0.913 | 0.992 | 0.815 | 0.883 | 0.969
NCI-H23 | 0.988 | 1.24 | 1.27 | 1.02 | 0.949 | 0.661 | – | 0.653 | 0.666 | 0.622 | 0.794 | 0.789 | 0.844 | 0.767 | 0.76 | 0.243 | 0.257 | 0.206 | 0.285 | 0.164
HCC-366 | 1.13 | 1.02 | 1.25 | – | 0.866 | 0.298 | 0.283 | 0.378 | 0.453 | 0.342 | 0.554 | 0.608 | 0.626 | 0.615 | 0.599 | 0.243 | 0.248 | 0.28 | 0.364 | 0.269
EMC-BAC-2 | 1.09 | 1.07 | 1.04 | 1.15 | 1.04 | 0.456 | 0.488 | 0.42 | 0.442 | 0.419 | 0.496 | 0.516 | 0.414 | 0.509 | 0.454 | 1.17 | 0.903 | 0.901 | 1.08 | 1
NCI-H2405 | 1.05 | 0.876 | 1.07 | 0.894 | 0.994 | 1.06 | 1.08 | 1.14 | 0.925 | 1.01 | 0.282 | – | 0.382 | 0.342 | 0.42 | 0.659 | 0.642 | 0.756 | 0.649 | 0.592
EPLC-272H | 1.05 | 0.943 | 1.04 | – | 0.891 | 0.382 | 0.55 | 0.494 | 0.394 | 0.461 | 0.323 | 0.237 | 0.268 | 0.274 | 0.31 | 0.194 | 0.426 | 0.224 | 0.181 | 0.15
NCI-H1915 | 1.02 | 1.05 | 1.04 | – | 1.02 | 0.541 | 0.572 | 0.533 | 0.371 | 0.509 | 0.327 | 0.362 | 0.387 | 0.354 | 0.398 | 0.672 | 0.652 | 0.715 | 0.637 | 0.669
NCI-H596 | 1.03 | 0.929 | 1.11 | 1.07 | 0.995 | 0.715 | – | 0.662 | 0.658 | 0.587 | 0.637 | 0.712 | 0.512 | 0.72 | 0.473 | 1.1 | 1.08 | – | 1.15 | 0.952
NCI-H322M | 1.22 | 1.2 | 1.12 | 1.17 | 1.29 | 0.935 | 0.968 | 0.907 | 0.894 | 0.885 | 0.597 | 0.716 | 0.728 | 0.715 | 0.708 | – | 0.518 | 0.497 | 0.629 | 0.43
NCI-H647 | 0.97 | 0.904 | 1.08 | 0.859 | 0.862 | 0.519 | 0.587 | 0.691 | 0.917 | 0.726 | 0.435 | 0.536 | 0.46 | 0.467 | 0.457 | 0.431 | 0.429 | 0.367 | 0.422 | 0.532
NCI-H2085 | 0.969 | 0.968 | 1.06 | 0.948 | 0.944 | 0.853 | 0.861 | 0.791 | 0.626 | 0.76 | 0.646 | 0.618 | 0.536 | 0.592 | 0.647 | 0.983 | 0.956 | 0.905 | 0.992 | 0.893
NCI-H727 | 0.742 | – | 1.13 | 0.979 | 0.704 | 1.26 | 1.38 | 1.21 | 1.13 | 1.11 | 0.543 | 0.341 | 0.378 | 0.643 | 0.609 | 0.51 | 0.555 | 0.763 | 0.563 | 0.482
NCI-H441 | 0.732 | 0.574 | 0.489 | 0.561 | 0.56 | 0.947 | 0.884 | 0.764 | 0.813 | 0.595 | 0.876 | 0.69 | 0.928 | 0.686 | 0.848 | 1.26 | 0.852 | 1.46 | 1 | 0.978
LOU-NH91 | 0.515 | 0.473 | 0.483 | 0.535 | 0.451 | 1.09 | 1.04 | 0.912 | 1.04 | 0.82 | 0.673 | 0.647 | 0.551 | 0.677 | 0.677 | 0.755 | 0.733 | 0.717 | 0.723 | 0.732
NCI-H3122 | 0.962 | 1.02 | 1.08 | 1.09 | 0.996 | 1.29 | 1.15 | 1.17 | 1.06 | 1.01 | 0.42 | 0.349 | 0.398 | 0.334 | 0.385 | 0.985 | 0.922 | 1.06 | 1.02 | 0.952
NCI-H460 | 1.14 | 1.25 | 1.14 | 1.2 | 0.469 | 0.766 | 0.724 | 1.05 | 0.819 | 0.801 | 0.538 | 0.521 | 0.548 | 0.54 | 0.491 | 0.698 | 0.583 | 0.462 | 0.725 | 0.668

From the supplement of paper PMC10307832
